# In ChEMBL document CHEMBL5390201, “The Natural Alkaloid (-)-N-Hydroxyapiosporamide Suppresses Colorectal Tumor Progression as an NF-κB Pathway Inhibitor by Targeting the TAK1-TRAF6 Complex” (J Nat Prod, 2023):
# The source made the active and inactive calls. The rule behind the calls is not given here.
# Legend:
# Cell membrane = experiment: Disruption of mitochondrial membrane potential in human HT-29 cells at 0.25 to 10 uM measured after 24 hrs by JC-1 staining based flow cytometry analysis; format: subcellular; conditions: dose 0.25-10 µM
# HCT-116 [1] = experiment: Induction of cell cycle arrest in human HCT-116 cells assessed as accumulation of cells at G2/M phase at 5 uM by RNase/PI staining based flow cytometry analysis (reference value: 23.15 %); format: functional
# HT-29 [2] = experiment: Induction of autophagic flux in human HT-29 cells assessed as increase in LC3I to LC3II conversion preincubated with chloroquine for 1 hr followed by compound addition and measured after 24 hrs by Western blot analysis; format: functional, cell-based
# HEK-293T = experiment: Inhibition of Flag-tagged TAK1/HA-tagged TRAF6 (unknown origin) protein-protein interaction transfected in HEK293T cells at 2 uM incubated for 6 hrs by co-immunoprecipitation method; format: cell-based; conditions: Homo sapiens
# [3] = molecular target: T1, Nuclear factor NF-kappa-B complex (Homo sapiens) (UniProt Q00653+P19838+Q04206); experiment: Inhibition of TNF-alpha induced NFkappaB activation in human HT-29 cells assessed as downregulation of E-selectin gene expression pretreated for 24 hrs followed by TNFalpha stimulation and measured after 2 hrs by quantitative RT-PCR analysis; format: cell-based; conditions: dose 1-10 µM, time 26.0 hrs
# T1 sequence (P19838 whole entry, looked up): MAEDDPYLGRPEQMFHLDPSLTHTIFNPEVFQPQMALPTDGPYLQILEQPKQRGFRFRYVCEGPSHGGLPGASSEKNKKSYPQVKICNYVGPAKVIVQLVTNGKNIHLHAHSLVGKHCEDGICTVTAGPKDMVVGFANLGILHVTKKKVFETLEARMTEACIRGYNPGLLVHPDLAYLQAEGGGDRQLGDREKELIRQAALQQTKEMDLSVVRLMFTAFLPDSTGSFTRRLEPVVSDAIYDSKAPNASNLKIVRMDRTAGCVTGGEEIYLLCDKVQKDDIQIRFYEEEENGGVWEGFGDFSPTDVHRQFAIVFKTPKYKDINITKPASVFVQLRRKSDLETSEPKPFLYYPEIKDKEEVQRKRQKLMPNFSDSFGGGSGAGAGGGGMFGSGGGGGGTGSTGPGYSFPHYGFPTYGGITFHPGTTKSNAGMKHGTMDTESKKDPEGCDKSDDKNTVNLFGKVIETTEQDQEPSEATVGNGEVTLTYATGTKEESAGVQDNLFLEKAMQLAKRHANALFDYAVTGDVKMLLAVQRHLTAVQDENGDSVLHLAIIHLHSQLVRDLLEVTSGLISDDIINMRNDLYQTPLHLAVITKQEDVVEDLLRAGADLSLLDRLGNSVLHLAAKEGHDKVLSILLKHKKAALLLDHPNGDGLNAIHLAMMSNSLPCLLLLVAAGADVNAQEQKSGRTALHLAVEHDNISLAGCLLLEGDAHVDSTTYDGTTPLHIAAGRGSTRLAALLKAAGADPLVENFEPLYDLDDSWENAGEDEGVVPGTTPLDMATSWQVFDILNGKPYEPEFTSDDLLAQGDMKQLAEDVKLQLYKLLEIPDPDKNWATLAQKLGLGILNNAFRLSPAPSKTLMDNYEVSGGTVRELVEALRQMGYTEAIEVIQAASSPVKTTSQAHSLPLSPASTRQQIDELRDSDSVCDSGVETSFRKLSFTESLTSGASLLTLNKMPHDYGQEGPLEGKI
# T1 sequence (Q00653 whole entry, looked up): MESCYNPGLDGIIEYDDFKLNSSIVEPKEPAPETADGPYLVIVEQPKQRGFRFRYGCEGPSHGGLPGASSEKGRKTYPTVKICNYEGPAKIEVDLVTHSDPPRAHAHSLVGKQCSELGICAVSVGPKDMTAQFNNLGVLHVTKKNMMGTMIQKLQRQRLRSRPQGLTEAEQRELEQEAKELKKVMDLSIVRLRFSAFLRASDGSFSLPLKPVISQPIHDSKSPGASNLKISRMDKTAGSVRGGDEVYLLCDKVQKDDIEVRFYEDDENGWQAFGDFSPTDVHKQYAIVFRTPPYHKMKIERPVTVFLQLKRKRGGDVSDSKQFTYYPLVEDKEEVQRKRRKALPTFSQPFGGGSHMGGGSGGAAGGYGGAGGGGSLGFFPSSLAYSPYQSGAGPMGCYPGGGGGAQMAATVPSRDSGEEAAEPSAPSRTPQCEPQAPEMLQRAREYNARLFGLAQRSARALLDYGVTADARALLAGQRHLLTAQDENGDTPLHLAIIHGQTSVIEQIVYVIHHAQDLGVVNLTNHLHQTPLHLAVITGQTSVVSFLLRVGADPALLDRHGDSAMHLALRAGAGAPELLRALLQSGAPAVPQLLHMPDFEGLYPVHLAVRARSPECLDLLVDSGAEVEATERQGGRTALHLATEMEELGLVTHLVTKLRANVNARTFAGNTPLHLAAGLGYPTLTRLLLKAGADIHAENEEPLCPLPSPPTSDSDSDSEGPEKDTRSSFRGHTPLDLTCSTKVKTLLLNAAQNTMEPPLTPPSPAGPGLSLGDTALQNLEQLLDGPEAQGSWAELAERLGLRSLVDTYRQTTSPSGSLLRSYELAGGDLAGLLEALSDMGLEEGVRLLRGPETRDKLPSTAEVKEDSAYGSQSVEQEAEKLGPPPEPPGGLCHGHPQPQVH
# T1 sequence (Q04206 whole entry, looked up): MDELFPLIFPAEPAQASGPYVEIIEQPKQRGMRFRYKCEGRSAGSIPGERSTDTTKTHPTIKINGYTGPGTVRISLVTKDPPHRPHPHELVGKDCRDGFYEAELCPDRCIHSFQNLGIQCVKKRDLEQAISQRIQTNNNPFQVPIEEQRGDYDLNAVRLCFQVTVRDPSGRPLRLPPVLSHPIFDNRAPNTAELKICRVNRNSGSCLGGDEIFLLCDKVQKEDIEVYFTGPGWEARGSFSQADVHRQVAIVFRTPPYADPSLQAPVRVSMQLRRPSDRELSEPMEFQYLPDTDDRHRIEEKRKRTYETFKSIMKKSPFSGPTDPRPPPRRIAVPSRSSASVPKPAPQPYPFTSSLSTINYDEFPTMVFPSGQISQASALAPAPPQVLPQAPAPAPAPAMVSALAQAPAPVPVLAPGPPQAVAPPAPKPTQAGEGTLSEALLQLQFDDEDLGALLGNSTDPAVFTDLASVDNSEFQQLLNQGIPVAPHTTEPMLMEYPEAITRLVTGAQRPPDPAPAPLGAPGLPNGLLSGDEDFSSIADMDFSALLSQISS
# Mus musculus [4] = experiment: Anti-inflammatory activity in AOM/DSS-induced BALB/c mouse model inflammatory bowel disease assessed as reduction in distortion of glands at 10 mg/kg, ip pretreated with AOM for 7 days further replaced with DSS for 7 days and repeated for 2 times followed by every 2 days compound treatment for […] starting from day 50 by H and E staining based analysis; format: functional, organism-based; conditions: time 21.0 day
# HT-29 [5] = experiment: Induction of cell cycle arrest in human HT-29 cells assessed as decrease in Cdc25c protein expression upto 10 uM incubated for 24 hrs by Western blot analysis; format: functional, cell-based
# HT-29 [6] = experiment: Induction of apoptosis in human HT-29 cells assessed as early apoptotic cells at 0.25 uM incubated for 24 hrs by Annexin V-FITC/PI staining based flow cytometric analysis (reference value: 5.29 %); format: functional
# [7] = Toxicity in athymic nude BALB/c mouse assessed as change in serum creatine kinase level at 5 to 15 mg/kg, ip administered every other day and measured after 14 days; format: organism-based; conditions: in vivo, 336 h, dose 5-15 mg/kg, time 14 day
# [8] = molecular target: T1, Nuclear factor NF-kappa-B complex (Homo sapiens); experiment: Inhibition of TNF-alpha induced NFkappaB activation in human HCT-116 cells assessed as downregulation of MCP-1 gene expression pretreated for 24 hrs followed by TNFalpha stimulation and measured after 2 hrs by quantitative RT-PCR analysis; format: cell-based; conditions: dose 1-10 µM, time 26.0 hrs
# HCT-116 [9] = experiment: Induction of cell cycle arrest in human HCT-116 cells assessed as decrease in cyclin B protein expression upto 10 uM incubated for 24 hrs by Western blot analysis; format: functional, cell-based
# HT-29 [10] = experiment: Induction of cell cycle arrest in human HT-29 cells assessed as accumulation of cells at G2/M phase at 10 uM by RNase/PI staining based flow cytometry analysis (reference value: 9.93 %); format: functional
# HCT-116 [11] = experiment: Induction of cell cycle arrest in human HCT-116 cells assessed as decrease in CDK4 protein expression upto 10 uM incubated for 24 hrs by Western blot analysis; format: functional, cell-based
# HT-29 [12] = experiment: Induction of apoptosis in human HT-29 cells assessed as necrotic cells at 1 uM incubated for 24 hrs by Annexin V-FITC/PI staining based flow cytometric analysis (reference value: 0.14 %); format: functional
# [13] = Toxicity in athymic nude BALB/c mouse xenografted with human HT-29 cells assessed as pathological changes in spleen at 5 to 15 mg/kg, ip administered every other day and measured after 14 days by hematoxylin and eosin staining-based microscopic analysis; format: organism-based; conditions: in vivo, 336 h, dose 5-15 mg/kg, time 14 day
# HCT-116 [14] = experiment: Induction of autophagic flux in human HCT-116 cells assessed as increase in LC3I to LC3II conversion preincubated with 3-methyladenine for 1 hr followed by compound addition and measured after 24 hrs by Western blot analysis; format: functional, cell-based
# HT-29 [15] = experiment: Induction of apoptosis in human HT-29 cells assessed as inhibition of caspase 9 protein expression measured for 24 hrs by Western blot analysis; format: functional, cell-based; conditions: dose 0-10 µM
# [16] = molecular target: T1, Nuclear factor NF-kappa-B complex (Homo sapiens); experiment: Inhibition of TNF-alpha induced NFkappaB activation in human HCT-116 cells assessed as downregulation of E-selectin gene expression pretreated for 24 hrs followed by TNFalpha stimulation and measured after 2 hrs by quantitative RT-PCR analysis; format: cell-based; conditions: dose 1-10 µM, time 26.0 hrs
# Mus musculus [17] = experiment: In vivo inhibition of NFkappaB activation in athymic BALB/c mouse xenografted with human HCT-116 cells assessed as reduction in IL-8 gene expression in tumor at 15 mg/kg, ip administered every other day and measured after 14 days by qRT-PCR analysis; format: functional, organism-based; conditions: time 14.0 day
# HT-29 [18] = experiment: Induction of apoptosis in human HT-29 cells assessed as late apoptotic cells at 5 uM incubated for 24 hrs by Annexin V-FITC/PI staining based flow cytometric analysis (reference value: 1.56 %); format: functional
# Mus musculus [19] = experiment: In vivo inhibition of NFkappaB activation in LPS-induced BALB/c mouse model of endotoxin shock assessed as reduction in TNF-alpha level in serum at 5 mg/kg, ip pretreated for 4 hrs followed by LPS stimulation for 1 hr by ELISA; format: functional, organism-based; conditions: time 5.0 hrs
# SW480 = experiment: Cytotoxicity against human SW480 cells assessed as decrease in cell viability incubated for 48 hrs by SRB assay; format: functional, cell-based; conditions: SW480, 48 h
# [20] = molecular target: T1, Nuclear factor NF-kappa-B complex (Homo sapiens); experiment: Inhibition of TNF-alpha induced NFkappaB activation in human HT-29 cells assessed as downregulation of MCP-1 gene expression pretreated for 24 hrs followed by TNFalpha stimulation and measured after 2 hrs by quantitative RT-PCR analysis; format: cell-based; conditions: dose 1-10 µM, time 26.0 hrs
# HT-29 [21] = experiment: Induction of autophagic flux in human HT-29 cells assessed as increase in LC3 protein expression preincubated with chloroquine for 1 hr followed by compound addition and measured after 24 hrs by Western blot analysis; format: functional, cell-based
# HCT-116 [22] = experiment: Induction of cell cycle arrest in human HCT-116 cells assessed as accumulation of cells at G0/G1 phase at 1 uM by RNase/PI staining based flow cytometry analysis (reference value: 33.08 %); format: functional
# HCT-116 [23] = experiment: Antitumor activity against human HCT-116 cells xenografted in athymic nude BALB/c mouse assessed as induction of autophagy by measuring increase in LC3B expression in tumor at 15 mg/kg, ip administered every other day and measured after 14 days by immunohistochemistry analysis; format: functional, organism-based; conditions: time 14.0 day
# HT-29 [24] = experiment: Induction of apoptosis in human HT-29 cells assessed as early apoptotic cells at 1 uM incubated for 24 hrs by Annexin V-FITC/PI staining based flow cytometric analysis (reference value: 5.29 %); format: functional
# HT-29 [25] = experiment: Induction of cell cycle arrest in human HT-29 cells assessed as accumulation of cells at G0/G1 phase at 1 uM by RNase/PI staining based flow cytometry analysis (reference value: 50.73 %); format: functional
# HCT-116 [26] = experiment: Induction of autophagic cell death in human HCT-116 cells at 1 to 10 uM pretreated with 3-methyladenine for 1 hr followed by compound addition and measured after 24 hrs by SRB assay; format: functional, cell-based; conditions: dose 1-10 µM
# HT-29 [27] = experiment: Induction of apoptosis in human HT-29 cells assessed as necrotic cells at 5 uM incubated for 24 hrs by Annexin V-FITC/PI staining based flow cytometric analysis (reference value: 0.14 %); format: functional
compound,measurement,setting,value
C[C@@H]1CC[C@H]2[C@H](C(=O)c3c(O)c([C@@]4(O)CC[C@@H](O)[C@H]5O[C@H]54)cn(O)c3=O)[C@H](C)C=C[C@@H]2C1,Activity,Cell membrane,Active
same,Activity,HCT-116 [1],15.66%
same,Activity,HT-29 [2],Active
same,inhibition,HEK-293T,Active
same,inhibition,[3],Dose-Dependent Effect
same,Activity,Mus musculus [4],Active
same,Activity,HT-29 [5],Active
same,Activity,HT-29 [6],12.6%
same,Activity,[7],Non-Toxic
same,inhibition,[8],Dose-Dependent Effect
same,Activity,HCT-116 [9],Active
same,Activity,HT-29 [10],0.78%
same,Activity,HCT-116 [11],Active
same,Activity,HT-29 [12],0.4%
same,Activity,[13],Non-Toxic
same,Activity,HCT-116 [14],Active
same,Activity,HT-29 [15],Dose-Dependent Effect
same,inhibition,[16],Dose-Dependent Effect
same,inhibition,Mus musculus [17],Active
same,Activity,HT-29 [18],4.04%
same,inhibition,Mus musculus [19],Active
same,IC50,SW480,570 nM
same,inhibition,[20],Dose-Dependent Effect
same,Activity,HT-29 [21],Active
same,Activity,HCT-116 [22],36.23%
same,Activity,HCT-116 [23],Active
same,Activity,HT-29 [24],47.4%
same,Activity,HT-29 [25],69.17%
same,Activity,HCT-116 [26],inactive
same,Activity,HT-29 [27],0.22%
